According to patent publication US20240390471A1, “COMPOUNDS AND ADJUVANT FORMULATIONS USEFUL IN PNEUMOCOCCAL VACCINES” (Merck Sharp & Dohme LLC, priority 2023, published 2024):

Legend:
human TLR7 = target: T1, human TLR7 (Homo sapiens, UniProt Q9NYK1); experiment: Cell-based TLR 7/8 assay, HEK-Blue TLR7 cells (SEAP reporter); conditions: based on Compound concentration only; Compounds formulated as SNEs; read-out: huTLR7 EC50 (converted)
T1 construct: host or cells: HEK-Blue 293 cells expressing human TLR7
T1 sequence (Q9NYK1 27-1049): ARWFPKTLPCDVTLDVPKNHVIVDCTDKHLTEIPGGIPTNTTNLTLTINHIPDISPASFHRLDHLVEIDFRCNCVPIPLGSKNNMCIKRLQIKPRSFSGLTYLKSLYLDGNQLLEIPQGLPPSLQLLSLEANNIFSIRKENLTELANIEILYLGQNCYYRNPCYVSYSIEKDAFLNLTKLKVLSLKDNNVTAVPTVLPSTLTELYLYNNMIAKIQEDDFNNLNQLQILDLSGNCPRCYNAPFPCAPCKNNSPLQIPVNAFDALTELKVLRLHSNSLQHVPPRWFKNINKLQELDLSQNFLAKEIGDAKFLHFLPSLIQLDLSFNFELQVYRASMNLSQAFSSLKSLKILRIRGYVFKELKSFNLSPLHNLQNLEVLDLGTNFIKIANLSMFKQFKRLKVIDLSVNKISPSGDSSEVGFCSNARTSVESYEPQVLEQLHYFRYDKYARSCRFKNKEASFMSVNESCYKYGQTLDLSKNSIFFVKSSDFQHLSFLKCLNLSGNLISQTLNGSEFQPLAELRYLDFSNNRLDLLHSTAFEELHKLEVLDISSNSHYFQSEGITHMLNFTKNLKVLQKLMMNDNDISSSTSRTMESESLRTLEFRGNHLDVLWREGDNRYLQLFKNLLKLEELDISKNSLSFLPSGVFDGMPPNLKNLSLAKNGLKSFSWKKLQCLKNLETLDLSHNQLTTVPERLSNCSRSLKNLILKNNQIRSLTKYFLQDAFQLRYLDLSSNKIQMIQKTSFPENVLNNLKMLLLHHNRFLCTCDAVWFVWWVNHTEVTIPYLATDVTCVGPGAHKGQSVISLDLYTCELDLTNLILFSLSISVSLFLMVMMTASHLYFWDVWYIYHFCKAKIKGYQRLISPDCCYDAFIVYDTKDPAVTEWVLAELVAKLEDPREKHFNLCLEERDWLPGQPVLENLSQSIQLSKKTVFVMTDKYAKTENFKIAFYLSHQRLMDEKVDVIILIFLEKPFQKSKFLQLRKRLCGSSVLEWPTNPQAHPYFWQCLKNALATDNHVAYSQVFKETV
Protocol: (§1) HEK-Blue™ TLR7 and TLR8 cells (InvivoGen) were designed to assess the stimulation of TLR7 and TLR8 by monitoring the activation of NF-κB and AP-1. Compound B-1-SNE samples were diluted 1:2 across an 8-point titration in diluent buffer histidine/PS-20 in a sterile V-bottom plate. 20 μL of samples were transferred to corresponding wells of two flat bottom assay plates. Media was aspirated from HEK-Blue™ human TLR 7 and TLR 8 cells (T-75 flasks) and gently rinsed with pre-warmed (37° C.) DPBS for a total volume of 5 mL/flask. The DPBS was gently removed from the cells and cells were gently manually dislodged and resuspended in 2 mL of DPBS. Cell assay suspensions were then prepared at approximately 2.2×10^5 cells per mL of HEK-Blue™ detection medium (InvivoGen). 180 μL of cell suspension in detection medium was added to each well of the two flat bottom assay plates containing the diluted Compound B-1-SNE samples for a final dilution of sample equaling 1:10 (180 μL of cell suspension in detection medium and 20 μL of sample). The cells were then incubated at 37° C. in 5% CO2 for 20 hrs. The reporter gene, NF-Kb, induces the production of secreted embryonic alkaline phosphatase (SEAP) when stimulated and can be monitored using the vendor supplied SEAP detection kit. SEAP colorimetric changes were read at an absorbance of 640 nm using a SpectroMax Stakmax plate reader. […] EC50 values were calculated based on total Compound B-1-SNE concentration using GraphPad Prism Software and analyzed using agonist vs. response variable slope (four parameters) least squares fit.
(§2) Further to the description in Example 10, a cell-based activation system was used to assess activity of the Compound-formulated nanoemulsion systems, prepared as described in examples, supra. HEK-Blue™ TLR7 and TLR8 cells (InvivoGen) were designed to assess the stimulation of TLR7 and TLR8 by monitoring the activation of NF-κB and AP-1. Compound-SNE samples were diluted 1:2 across an 8-point titration in diluent buffer histidine/PS-20 in a sterile V-bottom plate. 20 μL of samples were transferred to corresponding wells of two flat bottom assay plates. Media was aspirated from HEK-Blue™ human TLR 7 and TLR 8 cells (T-75 flasks) and gently rinsed with pre-warmed (37° C.) DPBS for a total volume of 5 mL/flask. The DPBS was gently removed from the cells and cells were gently manually dislodged and resuspended in 2 mL of DPBS. Cell assay suspensions were then prepared at approximately 2.2×10^5 cells per mL of HEK-Blue™ detection medium (InvivoGen). 180 μL of cell suspension in detection medium was added to each well of the two flat bottom assay plates containing the diluted Compound-SNE samples for a final dilution of sample equaling 1:10 (180 μL of cell suspension in detection medium and 20 μL of sample). The cells were then incubated at 37° C. in 5% CO2 for 20 hrs. The reporter gene, NF-Kb, induces the production of secreted embryonic alkaline phosphatase (SLAP) when stimulated and can be monitored using the vendor supplied SLAP detection kit. SLAP colorimetric changes were read at an absorbance of 640 nm using a SpectroMax Stakmax plate reader. EC50s were calculated based on Compound concentration only, not total Compound-SNE concentration (Table 6) using GraphPad Prism Software and analyzed using agonist vs. response variable slope (four parameters) least squares fit.

human TLR8 = target: T2, human TLR8 (Homo sapiens, UniProt Q9NR97); experiment: Cell-based TLR 7/8 assay, HEK-Blue TLR8 cells (SEAP reporter); conditions: based on Compound concentration only; Compounds formulated as SNEs; read-out: huTLR8 EC50 (converted)
T2 construct: host or cells: HEK-Blue 293 cells expressing human TLR8
T2 sequence (Q9NR97 27-1041): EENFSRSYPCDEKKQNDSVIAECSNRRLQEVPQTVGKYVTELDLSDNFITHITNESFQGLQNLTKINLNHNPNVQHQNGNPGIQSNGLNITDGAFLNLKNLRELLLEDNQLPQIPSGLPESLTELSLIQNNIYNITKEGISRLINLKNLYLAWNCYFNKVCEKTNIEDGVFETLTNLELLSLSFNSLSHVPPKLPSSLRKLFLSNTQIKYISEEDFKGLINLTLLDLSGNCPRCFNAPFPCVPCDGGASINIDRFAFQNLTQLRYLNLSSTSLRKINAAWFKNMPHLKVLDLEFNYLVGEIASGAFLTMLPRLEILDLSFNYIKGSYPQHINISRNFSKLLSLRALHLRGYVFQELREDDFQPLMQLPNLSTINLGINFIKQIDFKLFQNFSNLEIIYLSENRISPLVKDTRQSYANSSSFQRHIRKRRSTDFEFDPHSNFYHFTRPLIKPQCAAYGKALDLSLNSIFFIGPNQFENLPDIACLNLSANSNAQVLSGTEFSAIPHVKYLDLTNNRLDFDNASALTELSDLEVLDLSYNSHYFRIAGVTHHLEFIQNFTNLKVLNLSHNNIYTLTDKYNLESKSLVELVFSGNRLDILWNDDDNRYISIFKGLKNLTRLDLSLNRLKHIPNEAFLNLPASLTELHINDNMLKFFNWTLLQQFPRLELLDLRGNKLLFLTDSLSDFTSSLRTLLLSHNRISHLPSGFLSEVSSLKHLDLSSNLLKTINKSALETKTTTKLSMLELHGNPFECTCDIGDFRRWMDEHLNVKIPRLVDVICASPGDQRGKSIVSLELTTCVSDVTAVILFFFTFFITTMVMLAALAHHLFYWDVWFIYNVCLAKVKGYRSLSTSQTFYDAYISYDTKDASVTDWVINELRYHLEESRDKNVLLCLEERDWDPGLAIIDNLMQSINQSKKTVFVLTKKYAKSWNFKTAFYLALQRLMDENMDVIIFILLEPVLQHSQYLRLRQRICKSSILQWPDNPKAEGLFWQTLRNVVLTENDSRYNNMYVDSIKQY
Protocol: as §1, §2

Compound	EC50 (human TLR7) [µM]	EC50 (human TLR8) [µM]
CCCCCCCCCCCCCCCCCC(=O)NCCCCC(=O)N1CCN(c2cc(OC)c(Cn3cc4nc(N)nc(NCCCC)c4n3)c(OC)c2)CC1 [Compound A-1, N-(5-(4-(4-((5-amino-7-(butylamino)-2H-pyrazolo[4,3-d]pyrimidin-2-yl)methyl)-3,5-dimethoxyphenyl)piperazin-1-yl)-5-oxopentyl)stearamide]	14.9	5.37
CCCCCCCCCCCCCCCCCC(=O)NCCCCC(=O)N1CCN(c2cc(OC)c(Cn3cc4nc(N)nc(N[C@H](CO)CCC)c4n3)c(OC)c2)CC1 [Compound A-2, (S)—N-(5-(4-(4-((5-amino-7-((1-hydroxypentan-2-yl)amino)-2H-pyrazolo[4,3-d]pyrimidin-2-yl)methyl)-3,5-dimethoxyphenyl)piperazin-1-yl)-5-oxopentyl)stearamide]	7.53	0.454
CCCCCCCCCCCCCCCCCC(=O)NCCCCC(=O)N1CCN(c2ccc(Cn3cc4nc(N)nc(NCCCC)c4n3)c(OC)c2)CC1 [Compound B-1, N-(5-(4-(4-((5-amino-7-(butylamino)-2H-pyrazolo[4,3-d]pyrimidin-2-yl)methyl)-3-methoxyphenyl)piperazin-1-yl)-5-oxopentyl)stearamide]	0.837	0.554
CCCCCCCCCCCCCC(=O)NCCCCC(=O)N1CCN(c2ccc(Cn3cc4nc(N)nc(NCCCC)c4n3)c(OC)c2)CC1 [Compound B-2, N-(5-(4-(4-((5-amino-7-(butylamino)-2H-pyrazolo[4,3-d]pyrimidin-2-yl)methyl)-3-methoxyphenyl)piperazin-1-yl)-5-oxopentyl)tetradecanamide]	0.208	0.306
CCCCCCCC/C=C\CCCCCCCC(=O)NCCCCC(=O)N1CCN(c2ccc(Cn3cc4nc(N)nc(NCCCC)c4n3)c(OC)c2)CC1 [Compound B-3, N-(5-(4-(4-((5-amino-7-(butylamino)-2H-pyrazolo[4,3-d]pyrimidin-2-yl)methyl)-3-methoxyphenyl)piperazin-1-yl)-5-oxopentyl)oleamide]	0.155	0.129
CCCCC/C=C\C/C=C\CCCCCCCC(=O)NCCCCC(=O)N1CCN(c2ccc(Cn3cc4nc(N)nc(NCCCC)c4n3)c(OC)c2)CC1 [Compound B-4, (9Z,12Z)—N-(5-(4-(4-((5-amino-7-(butylamino)-2H-pyrazolo[4,3-d]pyrimidin-2-yl)methyl)-3-methoxyphenyl)piperazin-1-yl)-5-oxopentyl)octadeca-9,12-dienamide]	0.389	0.389
CCCCCCCCCCCCCCCCCC(=O)NCCCCC(=O)N1CCCN(c2ccc(Cn3cc4nc(N)nc(NCCCC)c4n3)c(OC)c2)CC1 [Compound B-5, N-(5-(4-(4-((5-amino-7-(butylamino)-2H-pyrazolo[4,3-d]pyrimidin-2-yl)methyl)-3-methoxyphenyl)-1,4-diazepan-1-yl)-5-oxopentyl)stearamide]	13.4	4.21
CCCCCCCCCCCCCCCCCC(=O)NCCCCC(=O)N1CCC(c2ccc(Cn3cc4nc(N)nc(NCCCC)c4n3)c(OC)c2)CC1 [Compound B-6, N-(5-(4-(4-((5-amino-7-(butylamino)-2H-pyrazolo[4,3-d]pyrimidin-2-yl)methyl)-3-methoxyphenyl)piperidin-1-yl)-5-oxopentyl)stearamide]	4.19	2.59
CCCCCCCCCCCCCCCCCC(=O)NCCCCC(=O)N1CC(c2ccc(Cn3cc4nc(N)nc(NCCCC)c4n3)c(OC)c2)C1 [Compound B-7, N-(5-(3-(4-((5-amino-7-(butylamino)-2H-pyrazolo[4,3-d]pyrimidin-2-yl)methyl)-3-methoxyphenyl)azetidin-1-yl)-5-oxopentyl)stearamide]	8.43	3.39
CCCCCCCCCCCCCCCCCC(=O)NCCCNC(=O)C1CCN(c2ccc(Cn3cc4nc(N)nc(NCCCC)c4n3)c(OC)c2)CC1 [Compound B-8, 1-(4-((5-amino-7-(butylamino)-2H-pyrazolo[4,3-d]pyrimidin-2-yl)methyl)-3-methoxyphenyl)-N-(3-stearamidopropyl)piperidine-4-carboxamide]	64.7	54
CCCCCCCCCCCCCCCCNC(=O)[C@H]1C[C@@H](CC(=O)N2CCN(c3ccc(Cn4cc5nc(N)nc(NCCCC)c5n4)c(OC)c3)CC2)C1 [Compound B-10, (1s,3s)-3-(2-(4-(4-((5-amino-7-(butylamino)-2H-pyrazolo[4,3-d]pyrimidin-2-yl)methyl)-3-methoxyphenyl)piperazin-1-yl)-2-oxoethyl)-N-hexadecylcyclobutane-1-carboxamide]	117	73.6
